Laboratory results reported in patent publication US20240299352A1, “COMBINATION THERAPIES WITH SETD2 INHIBITORS” (Epizyme, Inc., priority 2021, published 2024).

What was measured:
[1] = test system: Pfeiffer; test: Co-treatment combination study with Cpd. No. 15, CellTiter-Glo viability, Loewe Volume; format: cell-based; conditions: in combination with Cpd. No. 15, seven days, DLBCL cell line Pfeiffer
Experimental: (§1) Mantle cell lymphoma (MCL) and diffuse large B-cell lymphoma (DLBCL) cell line cultures in log-linear growth rate were treated with combinations of Cpd. No. 15 and combination partners according to a co-treatment model. […] No. 15 and the combination partner. […] Each combination was tested in quadruplicate wells. The final concentration of DMSO (vehicle) in the assay was 0.1% v/v. Fifty microliters of cell line suspension were directly dispensed to the assay-ready plates with an automated multichannel dispenser on to 384-well assay-ready plates. Assay plates were incubated for seven days unless otherwise indicated in a humidified atmosphere of 5% CO2 at 37° C. Quantification of the effect of single agents or combinations on cell viability was performed through measurement of cellular adenosine triphosphate (ATP) using a CellTiter-Glo® (Promega, Madison, WI) Luminescent Cell Viability Assay. Luminescence was detected using a SpectraMax M5 microplate reader (Molecular Devices, Sunnyvale, CA). Concentration response plots were generated in GraphPad Prism version 7.0 for Windows, GraphPad Software, (La Jolla, California) and curves fitted to a four-parameter logistic model with variable slope. Percent of inhibition was calculated at each treatment concentration.

[2] = test system: JEKO1; test: as above; format: cell-based; conditions: in combination with Cpd. No. 15, seven days, mantle cell lymphoma cell line JEKO1 (CRL-3006)
Experimental: as §1

[3] = test system: Z138; test: as above; format: cell-based; conditions: in combination with Cpd. No. 15, seven days, mantle cell lymphoma cell line Z138 (CRL-3001)
Experimental: as §1

[4] = test system: REC1; test: as above; format: cell-based; conditions: in combination with Cpd. No. 15, seven days, mantle cell lymphoma cell line REC1 (CRL-3004)
Experimental: as §1

[5] = test system: SUDHL5; test: as above; format: cell-based; conditions: in combination with Cpd. No. 15, seven days, DLBCL cell line SUDHL5
Experimental: as §1

[6] = test system: RL; test: as above; format: cell-based; conditions: in combination with Cpd. No. 15; 6-Day Cotreatment; DLBCL cell line RL
Experimental: as §1

[7] = test system: MAVER1; test: as above; format: cell-based; conditions: in combination with Cpd. No. 15, seven days, mantle cell lymphoma cell line MAVER1 (CRL-3008)
Experimental: as §1

[8] = test system: GRANTA519; test: as above; format: cell-based; conditions: in combination with Cpd. No. 15, seven days, mantle cell lymphoma cell line GRANTA519 (ACC 342)
Experimental: as §1

[9] = test system: SUDHL4; test: as above; format: cell-based; conditions: in combination with Cpd. No. 15, seven days, DLBCL cell line SUDHL4
Experimental: as §1

[10] = test system: HT; test: as above; format: cell-based; conditions: in combination with Cpd. No. 15, seven days, DLBCL cell line HT
Experimental: as §1

[11] = test system: WSUNHL; test: as above; format: cell-based; conditions: in combination with Cpd. No. 15, seven days, DLBCL cell line WSUNHL
Experimental: as §1

[12] = test system: SUDHL10; test: as above; format: cell-based; conditions: in combination with Cpd. No. 15; 5-Day Cotreatment; DLBCL cell line SUDHL10
Experimental: as §1

[13] = test system: MINO; test: as above; format: cell-based; conditions: in combination with Cpd. No. 15, seven days, mantle cell lymphoma cell line MINO (CRL-3000)
Experimental: as §1

[14] = test system: DB; test: as above; format: cell-based; conditions: in combination with Cpd. No. 15, seven days, DLBCL cell line DB
Experimental: as §1

[15] = test system: SUDHL6; test: as above; format: cell-based; conditions: in combination with Cpd. No. 15, seven days, DLBCL cell line SUDHL6
Experimental: as §1

[16] = test system: TOLEDO; test: as above; format: cell-based; conditions: in combination with Cpd. No. 15, seven days, DLBCL cell line TOLEDO
Experimental: as §1

[17] = test system: WILL2; test: as above; format: cell-based; conditions: in combination with Cpd. No. 15, seven days, DLBCL cell line WILL2
Experimental: as §1

[18] = test system: DOHH2; test: as above; format: cell-based; conditions: in combination with Cpd. No. 15, seven days, DLBCL cell line DOHH2
Experimental: as §1

[19] = test system: KARPAS422; test: as above; format: cell-based; conditions: in combination with Cpd. No. 15, seven days, DLBCL cell line KARPAS422
Experimental: as §1

[20] = test system: JVM2; test: as above; format: cell-based; conditions: in combination with Cpd. No. 15, seven days, mantle cell lymphoma cell line JVM2 (CRL-3002)
Experimental: as §1

[21] = test system: WSUDLCL2; test: as above; format: cell-based; conditions: in combination with Cpd. No. 15, seven days, DLBCL cell line WSUDLCL2
Experimental: as §1

[22] = test system: SUDHL2; test: as above; format: cell-based; conditions: in combination with Cpd. No. 15, seven days, DLBCL cell line SUDHL2
Experimental: as §1

[23] = test system: SUDHL8; test: as above; format: cell-based; conditions: in combination with Cpd. No. 15, seven days, DLBCL cell line SUDHL8
Experimental: as §1

[24] = test system: diffuse large B-cell lymphoma (DLBCL) cell lines; test: Co-treatment combination study with Cpd. No. 15, further cell lines (Table F), CellTiter-Glo viability, Loewe Volume; format: cell-based; conditions: for Combination effect with Cpd. No. 15 (Loewe Volume class), Ri1: co-treatment with Cpd. No. 15, cell line Ri1 (Cat. No. 96090512-1VL); for Combination effect with Cpd. No. 15 (Loewe Volume class), TMD8: co-treatment with Cpd. No. 15, cell line TMD8 (Cat. No. M-097); for Combination effect with Cpd. No. 15 (Loewe Volume class), WILL1: co-treatment with Cpd. No. 15, cell line WILL1 (Cat. No. ACC 651)
Experimental: as §1

[25] = test system: diffuse large B-cell lymphoma (DLBCL) cell lines; test: Pre-treatment model combination study with Cpd. No. 15 (7 days pre-treatment, then combination; Table G), CellTiter-Glo viability, Loewe Volume; conditions: 7 days pre-treatment with Cpd. No. 15, then combination

Row | Structure (SMILES) | Combination effect (Loewe Volume) Pfeiffer [1] | Combination effect (Loewe Volume) JEKO1 [2] | Combination effect (Loewe Volume) Z138 [3] | Combination effect (Loewe Volume) REC1 [4] | Combination effect (Loewe Volume) SUDHL5 [5] | Combination effect (Loewe Volume) RL [6] | Combination effect (Loewe Volume) MAVER1 [7] | Combination effect (Loewe Volume) SUDHL4 [9] | Combination effect (Loewe Volume) HT [10] | Combination effect (Loewe Volume) WSUNHL [11] | Combination effect (Loewe Volume) SUDHL10 [12] | Combination effect (Loewe Volume) DB [14] | Combination effect (Loewe Volume) SUDHL6 [15] | Combination effect (Loewe Volume) TOLEDO [16] | Combination effect (Loewe Volume) WILL2 [17] | Combination effect (Loewe Volume) DOHH2 [18] | Combination effect (Loewe Volume) KARPAS422 [19] | Combination effect (Loewe Volume) WSUDLCL2 [21] | Combination effect (Loewe Volume) SUDHL2 [22] | Combination effect (Loewe Volume) SUDHL8 [23] | further results
1 | COc1cccc2c1C(=O)c1c(O)c3c(c(O)c1C2=O)C[C@@](O)(C(=O)CO)C[C@@H]3O[C@H]1C[C@H](N)[C@H](O)[C@H](C)O1 [Doxorubicin, doxorubicin] | Additivity (between 1 and −1: additivity) | Additivity (between 1 and −1: additivity) | Additivity (between 1 and −1: additivity) | Additivity (between 1 and −1: additivity) | Additivity (between 1 and −1: additivity) | Additivity (between 1 and −1: additivity) | Additivity (between 1 and −1: additivity) | Additivity (between 1 and −1: additivity) | Additivity (between 1 and −1: additivity) | Additivity (between 1 and −1: additivity) | Additivity (between 1 and −1: additivity) | Additivity (between 1 and −1: additivity) | Synergy (VLoewe>1: synergy) | Synergy (VLoewe>1: synergy) | Additivity (between 1 and −1: additivity) | Additivity (between 1 and −1: additivity) | Additivity (between 1 and −1: additivity) | Additivity (between 1 and −1: additivity) | Additivity (between 1 and −1: additivity) | Additivity (between 1 and −1: additivity) | Combination effect (Loewe Volume) GRANTA519 [8]: Additivity (between 1 and −1: additivity); Combination effect (Loewe Volume) MINO [13]: Additivity (between 1 and −1: additivity); Combination effect (Loewe Volume) JVM2 [20]: Additivity (between 1 and −1: additivity); Combination effect with Cpd. No. 15 (Loewe Volume class), Ri1 [24]: Synergy (VLoewe>1: synergy); Combination effect with Cpd. No. 15 (Loewe Volume class), TMD8 [24]: Additivity (between 1 and −1: additivity); Combination effect with Cpd. No. 15 (Loewe Volume class), WILL1 [24]: Additivity (between 1 and −1: additivity)
2 | Nc1ccn([C@@H]2O[C@H](CO)[C@@H](O)C2(F)F)c(=O)n1 [Gemcitabine, gemcitabine] | Additivity (between 1 and −1: additivity) | – | – | – | Additivity (between 1 and −1: additivity) | Additivity (between 1 and −1: additivity) | – | Additivity (between 1 and −1: additivity) | Additivity (between 1 and −1: additivity) | Additivity (between 1 and −1: additivity) | Additivity (between 1 and −1: additivity) | Additivity (between 1 and −1: additivity) | Additivity (between 1 and −1: additivity) | Additivity (between 1 and −1: additivity) | Additivity (between 1 and −1: additivity) | Additivity (between 1 and −1: additivity) | Additivity (between 1 and −1: additivity) | Additivity (between 1 and −1: additivity) | Additivity (between 1 and −1: additivity) | Additivity (between 1 and −1: additivity) | Combination effect with Cpd. No. 15 (Loewe Volume class), Farage ([25]; cell line Farage (Cat. No. CRL-2630)): Additivity (between 1 and −1: additivity); Combination effect with Cpd. No. 15 (Loewe Volume class), HT ([25]; cell line HT (Cat. No. CRL-2631)): Additivity (between 1 and −1: additivity); Combination effect with Cpd. No. 15 (Loewe Volume class), OCILY7 ([25]; cell line OCILY7 (Cat. No. ACC 688)): Additivity (between 1 and −1: additivity); Combination effect with Cpd. No. 15 (Loewe Volume class), SUDHL4 ([25]; cell line SUDHL4 (Cat. No. ACC 495)): Additivity (between 1 and −1: additivity); Combination effect with Cpd. No. 15 (Loewe Volume class), WILL2 ([25]; cell line WILL2 (Cat. No. ACC 652)): Additivity (between 1 and −1: additivity); Combination effect with Cpd. No. 15 (Loewe Volume class), Ri1 [24]: Additivity (between 1 and −1: additivity); Combination effect with Cpd. No. 15 (Loewe Volume class), TMD8 [24]: Additivity (between 1 and −1: additivity); Combination effect with Cpd. No. 15 (Loewe Volume class), WILL1 [24]: Additivity (between 1 and −1: additivity)
3 | C=CC(=O)N1CCC[C@@H](n2nc(-c3ccc(Oc4ccccc4)cc3)c3c(N)ncnc32)C1 [Ibrutinib, ibrutinib] | No Effect | Synergy (VLoewe>1: synergy) | No Effect | Additivity (between 1 and −1: additivity) | No Effect | Additivity (between 1 and −1: additivity) | Synergy (VLoewe>1: synergy) | Synergy (VLoewe>1: synergy) | No Effect | Additivity (between 1 and −1: additivity) | No Effect | No Effect | Synergy (VLoewe>1: synergy) | No Effect | Additivity (between 1 and −1: additivity) | Synergy (VLoewe>1: synergy) | No Effect | Additivity (between 1 and −1: additivity) | No Effect | No Effect | Combination effect (Loewe Volume) GRANTA519 [8]: Additivity (between 1 and −1: additivity); Combination effect (Loewe Volume) MINO [13]: Synergy (VLoewe>1: synergy); Combination effect (Loewe Volume) JVM2 [20]: Additivity (between 1 and −1: additivity)
